The test system of the data set is CCRIS mutagenicity, Ames/micronucleus/aberration tests. Description: CCRIS mutagenicity studies.
The mark [1] stands for this setting: Test System: AMES SALMONELLA TYPHIMURIUM, Strain/Indicator: TA100, Metabolic Activation: NONE, Method: STANDARD PLATE.

Active and inactive are the calls of the source. How the calls were made is not given here.

In the case of `O=[N+]([O-])c1ccc2c3ccccc3c3ccc([N+](=O)[O-])c4ccc1c2c43`, the mutagenic call (End Point: In vitro micronucleus, Test System: CHL/IU cells, Metabolic Activation: None) is “active; positive”; the mutagenic call (End Point: In vitro micronucleus, Test System: HepG2 cells, Metabolic Activation: None) was “active; positive”; the mutagenic call (Test System: Chinese hamster lung cells/HPRT locus, Strain/Indicator: CHL/IU, Metabolic Activation: None) was “active; positive”; the mutagenic call (Test System: Human liver cells/HPRT locus, Strain/Indicator: HepG2, Metabolic Activation: None) was “active; positive”.

Consider `C/C=C1/C[C@@H](C)[C@@](C)(O)C(=O)OC/C2=C/CN(C)CC[C@@H](OC1=O)C2=O`, for which the mutagenic call is “active; positive” (Test System: AMES SALMONELLA TYPHIMURIUM, Strain/Indicator: TA100, Metabolic Activation: HAMSTER, LIVER, S-9, PCB, Method: PREINCUBATION); “active; positive” (Test System: AMES SALMONELLA TYPHIMURIUM, Strain/Indicator: TA100, Metabolic Activation: RAT, LIVER, S-9, PCB, Method: PREINCUBATION); “active; positive” (Test System: UDS HAMSTER HEPATOCYTES, Strain/Indicator: THY INCORP, Metabolic Activation: NONE, Method: AUTORADIOGRAPHY); “active; positive” (Test System: UDS MOUSE HEPATOCYTES, Strain/Indicator: THY INCORP, Metabolic Activation: NONE, Method: AUTORADIOGRAPHY); “active; positive” (Test System: UDS RAT HEPATOCYTES, Strain/Indicator: THY INCORP, Metabolic Activation: NONE, Method: AUTORADIOGRAPHY).

For the compound `Cc1cnc2cc(CO)c3c(nc(N)n3C)c2n1`, the mutagenic call is “active; positive” (Test System: AMES SALMONELLA TYPHIMURIUM, Strain/Indicator: TA98, Metabolic Activation: S-9); “active; positive” (Test System: AMES SALMONELLA TYPHIMURIUM, Strain/Indicator: TA98, Metabolic Activation: S-9, Method: PREINCUBATION); “active; positive” (Test System: AMES SALMONELLA TYPHIMURIUM, Strain/Indicator: TA100, Metabolic Activation: S-9, Method: PREINCUBATION); “active; positive” (Test System: AMES SALMONELLA TYPHIMURIUM, Strain/Indicator: YG1024, Metabolic Activation: S-9); “active; positive” (Test System: AMES SALMONELLA TYPHIMURIUM, Strain/Indicator: YG1024, Metabolic Activation: S-9, Method: PREINCUBATION).

Consider `C=CCO`, for which the mutagenic call is “active; positive (structural changes and ploidy). toxicity at 0.008 mg/ml” (End Point: In vitro chromosomal aberrations, Test System: Chinese hamster lung (CHL/IU) cells, Metabolic Activation: Rat, Liver, S9, Phenobarbital and 5,6-benzoflavone); “active; positive” (Test System: CHINESE HAMSTER V-79, Strain/Indicator: V-79/6-THIOGUANINE, Metabolic Activation: NONE); “active; positive. reevaluation of results: positive” (Test System: MOUSE LYMPHOMA, Strain/Indicator: L5178Y (TK+/TK-), Metabolic Activation: NONE, Method: SUSPENSION/PLATE); “inactive; negative” (Test System: Mouse lymphoma, Strain/Indicator: L5178Y (tk+/tk-), Metabolic Activation: Rat, Liver, S-9, Aroclor 1254, Method: Suspension/plate).

In the case of `CN(Cc1ccccc1)C(=O)CBr`, the mutagenic call (Test System: AMES SALMONELLA TYPHIMURIUM, Strain/Indicator: TA100, Metabolic Activation: MOUSE, LIVER, S-9, AROCLOR 1254, Method: STANDARD PLATE) was “inactive; negative” and the mutagenic call under setting [1] was “inactive; negative”.

`c1cncc(-c2cccnc2)c1`: the mutagenic call reads like this: (Test System: AMES SALMONELLA TYPHIMURIUM, Strain/Indicator: TA97, Metabolic Activation: RAT, LIVER, S-9, PHENOBARBITAL, Method: STANDARD PLATE) “inactive; negative”; (Test System: AMES SALMONELLA TYPHIMURIUM, Strain/Indicator: TA98, Metabolic Activation: RAT, LIVER, S-9, PHENOBARBITAL, Method: STANDARD PLATE) “inactive; negative”; (Test System: AMES SALMONELLA TYPHIMURIUM, Strain/Indicator: TA100, Metabolic Activation: RAT, LIVER, S-9, PHENOBARBITAL, Method: STANDARD PLATE) “active; positive”; (Test System: AMES SALMONELLA TYPHIMURIUM, Strain/Indicator: TA1535, Metabolic Activation: RAT, LIVER, S-9, PHENOBARBITAL, Method: STANDARD PLATE) “inactive; negative”; (Test System: AMES SALMONELLA TYPHIMURIUM, Strain/Indicator: TA1537, Metabolic Activation: RAT, LIVER, S-9, PHENOBARBITAL, Method: STANDARD PLATE) “inactive; negative”; (Test System: AMES SALMONELLA TYPHIMURIUM, Strain/Indicator: TA1538, Metabolic Activation: RAT, LIVER, S-9, PHENOBARBITAL, Method: STANDARD PLATE) “active; positive”.

With `O=C1c2cccc(O)c2C(=O)c2c(O)cccc21`, the mutagenic call reads like this: (Test System: AMES SALMONELLA TYPHIMURIUM, Strain/Indicator: TA98, Metabolic Activation: NONE, Method: STANDARD PLATE) “inactive; negative”; (Test System: AMES SALMONELLA TYPHIMURIUM, Strain/Indicator: TA98, Metabolic Activation: RAT, LIVER, S-9, AROCLOR 1254, Method: STANDARD PLATE) “inactive; negative”; under setting [1], “inactive; negative”; (Test System: AMES SALMONELLA TYPHIMURIUM, Strain/Indicator: TA100, Metabolic Activation: RAT, LIVER, S-9, AROCLOR 1254, Method: STANDARD PLATE) “inactive; negative”; (Test System: AMES SALMONELLA TYPHIMURIUM, Strain/Indicator: TA102, Metabolic Activation: NONE, Method: PREINCUBATION) “active; positive”; (Test System: AMES SALMONELLA TYPHIMURIUM, Strain/Indicator: TA102, Metabolic Activation: NONE, Method: STANDARD PLATE) “inactive; negative”. Besides, the mutagenic call (Test System: AMES SALMONELLA TYPHIMURIUM, Strain/Indicator: TA102, Metabolic Activation: RAT LIVER S-9, AROCLOR 1254, Method: STANDARD PLATE) was “active; positive”; the mutagenic call (Test System: AMES SALMONELLA TYPHIMURIUM, Strain/Indicator: TA102, Metabolic Activation: RAT, LIVER, S-9, AROCLOR 1254, Method: STANDARD PLATE) is “active; positive”; the mutagenic call (Test System: AMES SALMONELLA TYPHIMURIUM, Strain/Indicator: TA102, Metabolic Activation: RAT, LIVER, S-9, PHENOBARBITONE AND BETA-NAPHTHOFLAVONE, Method: STANDARD PLATE) is “active; positive”; the mutagenic call (Test System: AMES SALMONELLA TYPHIMURIUM, Strain/Indicator: TA102, Metabolic Activation: RAT, LIVER, S-9, Method: PREINCUBATION) is “active; positive”; the mutagenic call (Test System: AMES SALMONELLA TYPHIMURIUM, Strain/Indicator: TA102, Metabolic Activation: S-9, Method: STANDARD PLATE) was “active; positive”; the mutagenic call (Test System: AMES SALMONELLA TYPHIMURIUM, Strain/Indicator: TA1535, Metabolic Activation: NONE, Method: STANDARD PLATE) was “inactive; negative”. The mutagenic call by setting is: (Test System: AMES SALMONELLA TYPHIMURIUM, Strain/Indicator: TA1535, Metabolic Activation: RAT, LIVER, S-9, AROCLOR 1254, Method: STANDARD PLATE) “inactive; negative”; (Test System: AMES SALMONELLA TYPHIMURIUM, Strain/Indicator: TA1537, Metabolic Activation: NONE, Method: PREINCUBATION) “active; positive”; (Test System: AMES SALMONELLA TYPHIMURIUM, Strain/Indicator: TA1537, Metabolic Activation: NONE, Method: STANDARD PLATE) “active; positive”; (Test System: AMES SALMONELLA TYPHIMURIUM, Strain/Indicator: TA1537, Metabolic Activation: RAT, LIVER, S-9, AROCLOR 1254, Method: STANDARD PLATE) “active; positive”; (Test System: AMES SALMONELLA TYPHIMURIUM, Strain/Indicator: TA1537, Metabolic Activation: RAT, LIVER, S-9, Method: PREINCUBATION) “active; positive”; (Test System: AMES SALMONELLA TYPHIMURIUM, Strain/Indicator: TA1538, Metabolic Activation: NONE, Method: STANDARD PLATE) “inactive; negative”. For the same compound, the mutagenic call (Test System: AMES SALMONELLA TYPHIMURIUM, Strain/Indicator: TA1538, Metabolic Activation: RAT, LIVER, S-9, AROCLOR 1254, Method: STANDARD PLATE) was “inactive; negative”; the mutagenic call (Test System: AMES SALMONELLA TYPHIMURIUM, Strain/Indicator: TA2638, Metabolic Activation: S-9, Method: STANDARD PLATE) was “active; positive”; the mutagenic call (Test System: E. COLI, Strain/Indicator: WP2 (PKM101), Metabolic Activation: RAT, LIVER, S-9, PHENOBARBITONE AND BETA-NAPHTHOFLAVONE, Method: STANDARD PLATE) is “inactive; negative”; the mutagenic call (Test System: E. COLI, Strain/Indicator: WP2 (PKM101), Metabolic Activation: S-9, Method: STANDARD PLATE) was “inactive; negative”; the mutagenic call (Test System: E. COLI, Strain/Indicator: WP2 UVRA (PKM101), Metabolic Activation: RAT, LIVER, S-9, PHENOBARBITONE AND BETA-NAPHTHOFLAVONE, Method: STANDARD PLATE) was “inactive; negative”; the mutagenic call (Test System: E. COLI, Strain/Indicator: WP2 UVRA (PKM101), Metabolic Activation: S-9, Method: STANDARD PLATE) was “inactive; negative”.
